# Measurements as given in patent US12551576B2, “Chemiluminescent probes” (The General Hospital Corporation, priority 2020, dated 2026).
# “And” between values parts separate entries of the source, which are not always exact repeats. Equal values may be shown once.
# Experiments:
# Aβ plaques = Aβ plaques (Homo sapiens, UniProt P05067); assay: In vitro histological study (brain slice staining); settings: 5×FAD mouse brain slice incubated with ADLumin-1
# Protocol: In vitro histological study: a fresh brain tissue from a 24-month old APP/PS1 mouse was fixed in 4% formaldehyde for 24 hours and transferred into 30% sucrose at 4° C. until the tissue sunk. Then the tissue was embedded in OCT with gradual cooling over dry ice. […] Then the slice was covered with FluoroShield mounting medium (Abcam) and sealed with nail polish.
# Immunoglobulin G (IgG) = assay: Aβ aggregates incubated with IgG
# human serum albumin = human serum albumin (Homo sapiens, UniProt P02768); assay: Aβ aggregates incubated with human serum albumin
# Aβ40 aggregates = Aβ40 aggregates (Homo sapiens, UniProt P05067); assay: Binding affinity of ADLumin-1 with Aβs (fluorescence titration); settings: ADLumin-1 250 nM, Aβ40 aggregates 0 to 8 μM, fluorescence at 515 nm
# Tau = assay: Chemiluminescence with misfoldon aggregates in PBS (Tau); type: binding; settings: ADLumin-1 2.5 μM, Tau aggregates 2.5 μM
# [1] = Oxygen sensitivity of ADLumin-1; type: physicochemical
# Protocol: Oxygen and ROS sensitivity of ADLumin-1: A 100.0 μL DMSO solution of ADLumin-1 (200.0 μM) was added to a well in a 96-well plate. One group was bubbled with oxygen for 5 seconds at different time points, and the control group was sealed without bubbling. Once the bubbling was over, the plate was subjected to chemiluminescence intensity recording with the IVIS system with the open filter setting (500 nm-840 nm). For ROS tests, A PBS solution (240 μL) was incubated in an Eppendorf tube. To each of above tubes, different ROS (H2O2 30 μL, […] 30 μL, TBHP 30 μL and KO2 30 μL) was added, respectively. Then, a solution of ADLumin-1 in DMSO (30 μL, 250.0 μM) was added. Finally, 100.0 μL of the resulting solution was transferred into a well of 96-well plate, and triplicated samples were prepared. Chemiluminescence images were obtained with an IVIS system under the open filter (500 nm-840 nm).
# [2] = Fluorescence and chemiluminescence spectral studies; type: physicochemical
# Protocol: Materials and Methods: reagents used for the synthesis were purchased from Sigma-Aldrich and used without further purification. Column chromatography was performed on a glass column slurry-packed with silica gel (60 Å, […]; SiliCycle Inc.). Recombinant Aβ peptide (1-40/42) were purchased from rPeptide (A-1163-1). Aβ aggregates for in vitro studies were generated by slow stirring of Aβ40 in PBS buffer for 3 days at room temperature. ^1H and ^13C NMR spectra were recorded at 500 MHz and 125 MHz on Bruker spectrometers in CDCl3, CD3OD or DMSO-d6 solutions at room temperature with tetramethylsilane (TMS, δ=0) as an internal standard. Liquid chromatography-mass spectrometry (LC-MS) was performed using an Agilent 1200 Series apparatus with an LC/MSD trap and Daly conversion dynode detector with UV detection at 254 nm. Fluorescence measurements were carried out using an F-7100 fluorescence spectrophotometer (Hitachi). Transgenic female 5×FAD mice and age-matched wild-type female mice were purchased from Jackson Laboratory. All animal experiments were approved by the Institutional Animal Use and Care Committee at Massachusetts General Hospital. The IVIS Spectrum animal imaging system (PerkinElmer) was used for in vitro and in vivo imaging.
# Fluorescence spectral studies: Normally, all chemiluminescent molecules are fluorescent. The excitation and emission spectra of ADLumin-X were recorded and the emission peak of ADLumin-1 was around 590 nm (FIG. 1D) in DMSO, which is considerably longer than most of the commercially available chemiluminescence probes. The emission of ADLumin-2 is longer than that of ADLumin-1, due to its additional double-bond. (the emission peak of ADLumin-2 was 20 nm longer). […] Based on this fact, ADLumin-1 was used throughout this example, due to its high QY.
# Chemiluminescence spectral studies: ADLumin-1 is stable in PBS buffer and organic solvents, including acetonitrile, dichloromethane and methanol. […] Without being bound by any theory, it is believed that the luminescence was due to the auto-oxidation of ADLumin-1. Although the mechanism of chemiluminescence of IPO derivatives has been studied, the mechanism of auto-oxidation has been rarely explored. In the course of the experiments, ADLumin-1 emitted very strong luminescence in pure DMSO (FIG. 2b). Unexpectedly, if the ADLumin-1 DMSO solution was stirred, even stronger luminescence can be detected (3.4-fold in FIG. 2b). Without being bound by any theory, it is believed that the luminescence was related to oxygen levels in DMSO. […] However, the increasing-fold decreased with cycles (FIG. 2c). […] Since no ROS were added into the DMSO solution, it is reasonable to infer that the auto-oxidation of ADLumin-1 was oxygen-level dependent. It is worthy to note that green fluorescent protein and luciferase/luciferin also dependent on oxygen for their proper imaging functions.
# [3] = tested on: beta-sheet misfoldons in patient serum; assay: Chemiluminescence detection of beta-sheet misfoldons in disease serum; parameters: species or system human
# Protocol: Chemiluminescence detection beta-sheet misfoldons in disease serum by ADLumin-1: serum of AD patient contains abundant beta-sheet misfoldons that can be detected by ADLumin-1. ADLumin-1 (2.5 μM) was added to 100 μl non-diluted serum of AD patients, and serum from health control (HC) was used as the control. […] This is remarkable, since this difference is phenomenally large and is very useful for blood quality evaluation.
# Misfolded beta-sheets are associated with various diseases, including brain disorders (e.g., neurodegenerative disorders) and periphery diseases, particularly chronic diseases. The patient sera of chronic diseases also contains abundant beta-sheet misfoldons. In this regard, patient sera of multiple sclerosis, diabetes, rheumatoid arthritis and pulmonary fibrosis patients was used in this example.
# amylin = amylin (Homo sapiens, UniProt P10997); type: binding
# [4] = chemiluminescence / bioluminescence spectra
# amylin, sequence (P10997 34-70 limits assumed): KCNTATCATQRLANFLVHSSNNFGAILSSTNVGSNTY
# human serum albumin, sequence (P02768 25-609): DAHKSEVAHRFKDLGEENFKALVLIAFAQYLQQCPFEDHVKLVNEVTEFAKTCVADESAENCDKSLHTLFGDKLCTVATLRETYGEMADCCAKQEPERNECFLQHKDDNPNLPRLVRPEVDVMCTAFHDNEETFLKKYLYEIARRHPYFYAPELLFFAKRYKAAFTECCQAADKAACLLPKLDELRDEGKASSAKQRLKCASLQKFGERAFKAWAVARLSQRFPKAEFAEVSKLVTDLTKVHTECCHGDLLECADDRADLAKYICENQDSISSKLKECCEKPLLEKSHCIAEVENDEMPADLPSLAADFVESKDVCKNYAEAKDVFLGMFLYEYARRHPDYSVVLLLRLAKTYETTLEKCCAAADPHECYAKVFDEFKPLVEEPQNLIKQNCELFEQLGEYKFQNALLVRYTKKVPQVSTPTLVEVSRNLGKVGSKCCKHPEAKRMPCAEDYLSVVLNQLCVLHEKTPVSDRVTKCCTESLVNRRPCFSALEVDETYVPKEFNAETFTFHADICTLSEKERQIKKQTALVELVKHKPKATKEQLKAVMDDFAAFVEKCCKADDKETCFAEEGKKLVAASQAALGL
# Aβ40 aggregates, sequence (P05067 672-711 limits assumed): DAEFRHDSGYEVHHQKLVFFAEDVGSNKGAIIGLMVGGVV
# Aβ plaques, sequence (P05067 672-713 limits assumed): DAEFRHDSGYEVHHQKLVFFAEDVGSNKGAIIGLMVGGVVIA
structure (smiles),measurement,setting,value
"Cc1nc2c[nH]c(/C=C/C=C/c3ccc(N(C)C)cc3)cn-2c1=O [ADLumin-1, 6-((1E,3E)-4-(4-(dimethylamino)phenyl)buta-1,3-dien-1-yl)-2-methylimidazo[1,2-a]pyrazin-3(7H)-one]",signal to noise ratio (SNR) of plaques,Aβ plaques,2.93
same,chemiluminescence intensity IgG/Aβ group vs IgG group,Immunoglobulin G (IgG); incubation 30 minutes,1.81 fold
same,chemiluminescence intensity IgG/Aβ group vs IgG group,Immunoglobulin G (IgG); incubation 60 minutes,1.71 fold
same,chemiluminescence intensity IgG/Aβ group vs IgG group,Immunoglobulin G (IgG); incubation 120 minutes,2.55 fold
same,difference between Aβ/albumin and albumin only group,human serum albumin,no significant differences
same,Kd,Aβ40 aggregates,2100 nM
same,largest chemiluminescence difference with aggregates,Tau,7.02 fold
same,response time to O2,[1],within seconds
same,luminescence increase after stirring,[1]; ADLumin-1 DMSO solution,3.4 fold
same,chemiluminescence intensity increase after O2 bubbling,"[1]; DMSO solution, after first 5 seconds bubbling",27 fold
same,stability,"[2]; PBS buffer and organic solvents, including acetonitrile, dichloromethane and methanol",stable
same,emission peak (FWHM comparison),[2]; [4],540 nm
same,full width at half-maximum (FWHM),[2]; [4],94 nm
same,fluorescence emission peak,[2]; in DMSO,around 590 nm
same,chemiluminescence emission peak,[2]; in the presence of 10% DMSO,around 540 nm
same,chemiluminescence signal AD serum vs HC serum,"[3]; ADLumin-1 2.5 μM, 100 μl non-diluted serum",> 50 fold and 52.2 fold
same,chemiluminescence signal disease serum vs HC control,[3]; diabetes serum,44.7 fold
same,chemiluminescence signal disease serum vs HC control,[3]; multiple sclerosis serum,34.9 fold
same,chemiluminescence signal disease serum vs HC control,[3]; pulmonary fibrosis serum,16.6 fold
same,chemiluminescence signal disease serum vs HC control,[3]; rheumatoid arthritis serum,29.3 fold
same,largest chemiluminescence difference with aggregates,amylin,4.20 fold
